Source: patent publication US20220062291A1, “COMPOSITIONS AND METHODS OF TREATING CANCERS BY ADMINISTERING A PHENOTHIAZINE-RELATED DRUG THAT ACTIVATES PROTEIN PHOSPHATASE 2A (PP2A) WITH REDUCED INHIBITORY ACTIVITY TARGETED TO THE DOPAMINE D2 RECEPTOR AND ACCOMPANYING TOXICITY” (DANA-FARBER CANCER INSTITUTE, INC., priority 2018, published 2022)

Columns and labels:
in vivo = conditions: female, mouse, po
Procedure: (§3) PPZ and iPAP1 were each given per orally to eight-week-old female C57BL/6 mice every 24 hours (n=3 for each cohort). The mice were monitored for four recognized types of dopamine receptor D2 mediated toxicity, namely: i) general activity; ii) reactivity to touch; iii) fear/startle to sound; and iv) tone of abdominal muscle. Behavioral monitoring was done at 15 minutes, 1 hour, 4 hours and 24 hours after each treatment. PPZ and iPAP1 were each administered at 0, 2.5, 5, 10, 20 and 40 mg/kg body weight/dose, and iPAP1 was also administered at 80 mg/kg body weight/dose.

PP2A subunits [1] = experiment: Co-immunoprecipitation of PP2A subunits (holoenzyme assembly); design: species or system human; conditions: KOPT-K1 cells, 10 μM, 24 hours
Text: (§1) The biochemical activity of iPAP1 was further characterized by addressing whether it acts exclusively on the three identified subunits to mediate the assembly of PP2A, or whether other proteins expressed by T-ALL cells are also required. Using baculovirus vectors, each subunit of PP2A was first expressed with a C-terminal tag in Hi5 insect cells, and then purified the subunit proteins using columns with antibodies against the tags bound to agarose beads (see, Example 5, FIG. 13-FIG. 14). […] PP2A is a unique enzyme consisting of three subunits and it needs to be properly assembled into a holoenzyme before it mediates phosphatase activity. […] The protein lysates were then immunoprecipitated with anti-PPP2CA antibody or normal IgG as a control, and the precipitates were immunoblotted with antibodies specifically detecting each of the PP2A subunits. […] Nuclear and cytoplasmic fractions were separated using NE-PER™ Nuclear and Cytoplasmic Extraction Kit (Thermo Fisher Scientific), and each of the subunits of PP2A was analyzed by western blot. Histone H3 and α tubulin expression levels were used as loading controls for nuclear and cytoplasmic fractions, respectively. […] Lysates were immunoprecipitated using an anti-PPP2CA antibody, and then blotted with antibodies specific for each PP2A subunit. […] The results of a co-immunoprecipitation assay using an anti-PPP2CA antibody for immunoprecipitation in KOPT-K1 cells treated with SMAP at 10 μM or control DMSO for 24 hours before they were lysed for protein extraction are illustrated in FIG. 9B. Lysates were immunoprecipitated using an anti-PPP2CA antibody, and then blotted with antibodies specific for each PP2A subunit.

[2] = female, C57BL/6, mouse, in vivo, po, 1 week
Procedure: as §3

PP2A = biological target: T1, PP2A (Homo sapiens, UniProt P30153+P67775+Q16537); experiment: PP2A phosphatase activity in treated KOPT-K1 cells; format: cell-based
T1 construct: are endogenously expressed by KOPTK1 cells; endogenous in cells; host or cells: KOPT-K1 T-ALL cells / lysates
Procedure: Data are presented as means±s.d. (n=3, biological replicates). KO; knock out. **P<0.01, ***P<0.001 by student's t-test.
(§2) For IC50 calculation, KOPT-K1 cells were treated with each of the compounds at various concentrations for 72 hours, followed by the determination of viable cell numbers with PrestoBlue® cell viability reagent. For the PP2A phosphatase activity assay, KOPT-K1 cells were treated with each of the compounds at 10 μM for 3 hours before phosphatase activity was measured. Dopamine D2 receptor activity was monitored in HEK293T cells coexpressing the dopamine D2 receptor, modified G protein and SRE luciferase reporter. Cells were treated with each of the compound at 10 μM for 3 hours, then lysed for the luciferase reporter assay.
For IC50 calculations, KOPT-K1 cells were treated with each of the compound at various concentrations for 72 hours, then their viability was examined by PrestoBlue® Cell Viability Reagent (Thermo Fisher Scientific). […] DRD2 activity was monitored in HEK293T cells expressing DRD2, modified G protein and SRE luciferase reporter. Cells were treated with each of the compounds at 10 μM for three hours, then lysed for luciferase reporter assay. […] The biochemical assays were performed as indicated in Examples 7 and 8.

KOPT-K1 cells = experiment: KOPT-K1 cell viability (PrestoBlue), IC50 after 72 hours; format: cell-based, human
Procedure: as §2
For IC50 calculations, KOPT-K1 cells were treated with each of the compound at various concentrations for 72 hours, then their viability was examined by PrestoBlue® Cell Viability Reagent (Thermo Fisher Scientific). For PP2A phosphatase activity assay, KOPT-K1 cells were treated with each of the compound at 10 μM for three hours before the activity of PP2A was quantified using PP2A Immunoprecipitation Phosphatase Assay Kit (Merck Millipore®). DRD2 activity was monitored in HEK293T cells expressing DRD2, modified G protein and SRE luciferase reporter. Cells were treated with each of the compounds at 10 μM for three hours, then lysed for luciferase reporter assay. […] The biochemical assays were performed as indicated in Examples 7 and 8.

[3] = Peripheral blood platelet counts; format: in vivo, C57BL/6J mice; conditions: 80 mg/kg/day intraperitoneally, seven consecutive days
Procedure: The peripheral blood platelet counts in C57BL/6J mice treated with either by DMSO or iPAP1 at 80 mg/kg/day intraperitoneally for seven consecutive days, were measured. […] Other blood cell counts were unchanged in treated compared to control mice. iPAP1 treatment of mice increased the platelet count, due to effects of the compound on endoreduplication of megakaryocytes.

PP2A subunits [4] = biological target: T2, PP2A subunits (Homo sapiens, UniProt P30153+P67775+Q16537); experiment: Co-immunoprecipitation of PP2A subunits (holoenzyme assembly); conditions: purified subunits from insect cells
T2 construct: are endogenously expressed by KOPTK1 cells; endogenous in cells; host or cells: KOPT-K1 T-ALL cells / lysates
Text: as §1

T1 sequence (P30153 2-589): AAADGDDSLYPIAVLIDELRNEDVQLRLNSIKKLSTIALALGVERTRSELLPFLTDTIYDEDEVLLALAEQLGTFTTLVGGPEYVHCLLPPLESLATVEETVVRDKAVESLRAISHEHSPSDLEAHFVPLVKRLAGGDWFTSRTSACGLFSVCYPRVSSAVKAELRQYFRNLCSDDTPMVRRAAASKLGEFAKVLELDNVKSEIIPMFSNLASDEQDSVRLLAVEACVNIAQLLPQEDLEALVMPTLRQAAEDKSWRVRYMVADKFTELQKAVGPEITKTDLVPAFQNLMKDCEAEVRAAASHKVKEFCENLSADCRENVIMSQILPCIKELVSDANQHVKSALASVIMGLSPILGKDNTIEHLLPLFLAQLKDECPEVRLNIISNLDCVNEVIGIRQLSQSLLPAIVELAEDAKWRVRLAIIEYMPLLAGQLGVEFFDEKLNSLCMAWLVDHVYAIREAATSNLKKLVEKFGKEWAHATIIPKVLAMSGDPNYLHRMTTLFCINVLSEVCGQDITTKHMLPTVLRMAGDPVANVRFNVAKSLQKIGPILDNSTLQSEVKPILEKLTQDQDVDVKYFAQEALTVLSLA
T1 sequence (P67775 whole entry): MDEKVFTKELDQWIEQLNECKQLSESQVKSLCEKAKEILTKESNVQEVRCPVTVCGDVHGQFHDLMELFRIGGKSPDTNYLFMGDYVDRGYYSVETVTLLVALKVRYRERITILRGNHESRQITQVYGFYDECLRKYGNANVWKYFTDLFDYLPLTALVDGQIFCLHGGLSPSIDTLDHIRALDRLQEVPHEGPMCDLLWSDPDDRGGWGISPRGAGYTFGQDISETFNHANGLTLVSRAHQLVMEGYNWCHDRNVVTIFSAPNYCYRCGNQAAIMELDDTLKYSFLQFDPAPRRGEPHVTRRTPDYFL
T1 sequence (Q16537 2-467): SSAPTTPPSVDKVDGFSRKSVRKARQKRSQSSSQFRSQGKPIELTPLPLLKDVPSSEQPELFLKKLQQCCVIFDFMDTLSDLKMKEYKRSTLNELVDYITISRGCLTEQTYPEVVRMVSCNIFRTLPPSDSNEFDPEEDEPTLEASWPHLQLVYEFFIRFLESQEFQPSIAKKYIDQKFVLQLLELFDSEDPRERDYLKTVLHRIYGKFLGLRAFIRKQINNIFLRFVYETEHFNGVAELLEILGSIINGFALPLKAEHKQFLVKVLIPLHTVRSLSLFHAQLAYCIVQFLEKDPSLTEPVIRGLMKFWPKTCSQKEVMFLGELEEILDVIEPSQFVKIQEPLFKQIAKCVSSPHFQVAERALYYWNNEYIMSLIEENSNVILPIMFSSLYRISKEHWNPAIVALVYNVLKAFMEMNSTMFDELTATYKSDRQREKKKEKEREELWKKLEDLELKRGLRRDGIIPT
T2 sequence (P30153 2-589): as the sequence (P30153 2-589) above
T2 sequence (P67775 whole entry): as the sequence (P67775 whole entry) above
T2 sequence (Q16537 2-467): as the sequence (Q16537 2-467) above

SMILES	MTD at 1 week (in vivo) [mg/kg]	PP2A subunits co-immunoprecipitated with anti-PPP2CA antibody (PP2A subunits [1])	dose showing neurological toxicity [2] [mg/kg body weight/dose]	more active than PPZ for stimulating PP2A phosphatase activity (PP2A; KOPT-K1, 10 μM for three hours) [times]	phosphatase activity of PP2A relative to basal level (PP2A; WT KOPT-K1 cells, 1 μM)	IC50 (KOPT-K1 cells; Homo sapiens, KOPTK1, 72 h, 72 hours, PrestoBlue, read-out: IC50 value against KOPT-K1 cells) [nM]	more active than PPZ for mediating T-ALL cell killing (KOPT-K1 cells; KOPT-K1, 72 hours) [times]	other blood cell counts [3]	peripheral blood platelet counts [3]	assembly of purified PPP2R1A, PPP2CA and PPP2R5E (PP2A subunits [4])
OCCN1CCN(CCCN2c3ccccc3Sc3ccc(Cl)cc32)CC1 [PPZ, perphenazine, reference compound]	2.5	PPP2CA uniquely binds to PPP2R1A and PPP2R5E	≥ 5							
COc1ccc(C(=O)N2c3ccccc3Sc3ccc(Cl)cc32)cc1 [iPAP1]				10	up to twice its basal level	~400	10	unchanged	significantly increased the platelet counts	assembled into an active enzyme complex
